Where “and” joins values, the source holds several entries; their conditions need not be identical. Equal entries are not always repeated. Where two headings read alike, the source gives them in different places.
Key:
Experiment in all cases: Competitive site-specific PhosID-ABPP with XO44 in intact A549 cells
Assay type in all cases: binding
EphA2 = biological target: T1, EphA2 (Homo sapiens, UniProt P29317); details: apparent IC50, 3 h inhibitor then 25 μM XO44 4 h
T1 construct: endogenous in cells; host or cells: cultured cells treated intact (A549 per the earlier reading)
Method: (§1) 1e^6 cells were plated in 15 cm plates (Greiner) 3 days before treatment and kept in a humidified atmosphere with 5% CO2 at 37 °C. The growth medium was replaced by 10 ml treatment [DMEM with 0.5% FBS and 100 units/ml PS supplemented with the corresponding concentration of NVP-BHG712 (Sigma-Aldrich) or DMSO] and incubated at 37 °C, 5% CO2 for 3 h. Then, 10 μl 25 mM XO44 (PF-6808472, Sigma-Aldrich) was added directly to the medium and swirled to enable dissolution. Subsequently, the cells were incubated at 37 °C, 5% CO2 for 4 h. The samples for Supplemental Fig. S1 were generated by directly incubating with 25 μM XO44-containing growth medium for 4 h.
(§2) After treatment, the cells were washed with ice-cold DPBS and harvested using a cell scraper in 1 ml ice-cold DPBS. Then, the cell suspension was spun down at 2000g for 1 min, and the supernatant was aspirated. The cell pellet was snap-frozen in liquid nitrogen and stored at −80 °C for later use.
(§3) Cell pellets were lysed in 500 μl lysis buffer per 15 cm plate of cells, consisting of 50 mM Hepes (Sigma-Aldrich, pH 7.5), 0.5% NP-40 (Applichem), 0.2% SDS (Gen-Apex), 2 mM MgCl2 (Sigma-Aldrich), 10 mM NaCl (Merck), 1× protease inhibitor cocktail (Roche), and 0.5 μl/ml Benzonase (Millipore). Cell lysates were incubated at room temperature for 15 min to allow DNA cleavage. Cell debris and DNA were spun down for 30 min at 20,567g at 16 °C. The supernatant was collected, and the protein concentration was determined by a bicinchoninic acid assay (Thermo Fisher Scientific).
(§4) The copper(I)-catalyzed azide-alkyne cycloaddition (CuAAC) was performed on cellular lysates in 2 M urea (Merck) in 1× 50 mM Hepes (pH 7.5). CuAAC components were added in the following order: 5 mM tris(3-hydroxypropyltriazolylmethyl)amine (Lumiprobe), 2.5 mM CuSO4 5·H2O (Sigma-Aldrich), 500 μM phosphonate-azide (prepared as described in van Bergen et al., 2023 ([28])), and 25 mM sodium ascorbate (Sigma-Aldrich). Samples were incubated for 2 h at room temperature while rotating. Methanol–chloroform precipitation was performed to remove the CuAAC components, and the air-dried pellets were resuspended in 8 M urea and sonicated in a bioruptor (Diagenode) with the high amplitude setting for 10 min with cycles of 30 s on and 30 s off.
(§5) Clicked and dissolved protein samples were diluted to 4M urea with 50 mM ammonium bicarbonate (pH 8, AmBic, Sigma-Aldrich). The proteins were reduced with 4 mM DTT (Sigma-Aldrich) for 60 minutes at room temperature and alkylated in the dark using 8 mM iodoacetamide (Sigma-Aldrich) for 30 min. Residual iodoacetamide was quenched by adding DTT to a final concentration of 4 mM.
(§6) Next, samples were diluted 2× with 50 mM AmBic and digested with LysC (1:75 enzyme to protein ratio, Wako) for 4 h at 37 °C. Finally, proteins were digested overnight using Trypsin (1:50, enzyme to protein ratio, Sigma-Aldrich) at 37 °C. Proteolysis with chymotrypsin was performed similarly to the trypsin digestion, only replacing both proteolytic enzymes with α-chymotrypsin (bovine, 1:75, enzyme to protein ratio, Sigma-Aldrich) overnight at 37 °C. Digested material was desalted using 3 cc C18 Seppak cartridges (Waters) and air dried using a vacuum centrifuge.
(§7) For the digestion with pepsin, protease incubation (Porcine, 1:50, enzyme to protein ratio, Sigma-Aldrich) was performed for 4 h at 37 °C in 40 mM HCl (pH 2). Digested material was directly desalted using 3 cc C18 Seppak cartridges and air dried using a vacuum centrifuge.
(§8) Samples were dephosphorylated prior to immobilized metal affinity chromatography (IMAC) enrichment. Desalted peptides were dissolved in 1× rCutSmart buffer (pH 8, New England BioLabs) and incubated with 50 units of alkaline phosphatase (calf intestinal, QuickCIP, New England BioLabs) overnight at 37 °C while shaking. After dephosphorylation, all peptides were again desalted using 3 cc C18 Seppak cartridges and air-dried using a vacuum centrifuge. […]

EphB4 = biological target: T2, EphB4 (Homo sapiens, UniProt P54760); details: apparent IC50, 3 h inhibitor then 25 μM XO44 4 h, n = 3, read-out: IC50 EphB4;K647
T2 construct: endogenous in cells; host or cells: cultured cells treated intact (A549 per the earlier reading)
T2 sequence (P54760 16-987): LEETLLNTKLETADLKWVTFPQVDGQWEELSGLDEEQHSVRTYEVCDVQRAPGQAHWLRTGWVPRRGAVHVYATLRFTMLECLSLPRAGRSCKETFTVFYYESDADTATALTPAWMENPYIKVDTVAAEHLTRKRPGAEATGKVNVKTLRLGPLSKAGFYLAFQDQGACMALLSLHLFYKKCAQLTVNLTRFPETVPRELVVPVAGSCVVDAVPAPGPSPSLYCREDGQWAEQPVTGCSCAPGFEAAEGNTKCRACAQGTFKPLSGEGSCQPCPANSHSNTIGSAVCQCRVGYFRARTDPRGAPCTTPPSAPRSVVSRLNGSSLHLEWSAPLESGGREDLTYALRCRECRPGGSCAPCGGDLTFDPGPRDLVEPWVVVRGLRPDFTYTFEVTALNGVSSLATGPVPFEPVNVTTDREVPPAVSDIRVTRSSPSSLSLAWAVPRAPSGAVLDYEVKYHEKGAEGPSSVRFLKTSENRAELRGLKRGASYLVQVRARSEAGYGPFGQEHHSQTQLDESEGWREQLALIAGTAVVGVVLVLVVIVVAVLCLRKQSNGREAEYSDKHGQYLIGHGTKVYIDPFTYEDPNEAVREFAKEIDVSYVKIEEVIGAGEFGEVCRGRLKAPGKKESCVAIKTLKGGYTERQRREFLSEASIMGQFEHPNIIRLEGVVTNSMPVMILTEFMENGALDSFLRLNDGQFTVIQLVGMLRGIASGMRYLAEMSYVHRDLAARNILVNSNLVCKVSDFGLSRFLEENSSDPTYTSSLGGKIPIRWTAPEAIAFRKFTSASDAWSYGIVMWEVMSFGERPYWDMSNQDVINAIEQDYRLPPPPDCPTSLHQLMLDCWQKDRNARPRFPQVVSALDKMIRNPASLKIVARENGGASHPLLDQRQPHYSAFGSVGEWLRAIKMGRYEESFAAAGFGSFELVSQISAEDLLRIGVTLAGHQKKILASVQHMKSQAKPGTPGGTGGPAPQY
Method: as §1, §2, §3, §4, §5, §6, §7, §8

JAK1 = biological target: T3, JAK1 (Homo sapiens, UniProt P23458); details: 0.1 nM to 25 µM inhibitor, trypsin and pepsin
T3 construct: endogenous in cells; host or cells: cultured cells treated intact (A549 per the earlier reading)
Method: as §1, §2, §3, §4, §5, §6, §7, §8

JAK2 = biological target: T4, JAK2 (Homo sapiens, UniProt O60674); details: 0.1 nM to 25 µM inhibitor, trypsin and pepsin
T4 construct: endogenous in cells; host or cells: cultured cells treated intact (A549 per the earlier reading)
Method: as §1, §2, §3, §4, §5, §6, §7, §8

LYN = biological target: T5, LYN (Homo sapiens, UniProt P07948); details: apparent IC50, pepsin-based analysis, n = 3, read-out: IC50 LYN;K275
T5 construct: endogenous in cells; host or cells: cultured cells treated intact (A549 per the earlier reading)
Method: as §1, §2, §3, §4, §5, §6, §7, §8

MAP3K20 = biological target: T6, MAP3K20 (Homo sapiens, UniProt Q9NYL2); details: apparent IC50, unique peptide, n = 3, read-out: IC50 MAP3K20;K45
T6 construct: endogenous in cells; host or cells: cultured cells treated intact (A549 per the earlier reading)
Method: as §1, §2, §3, §4, §5, §6, §7, §8

[1] = biological target: T7, cyclin G–associated kinase (GAK) (Homo sapiens, UniProt O14976)
T7 construct: endogenous in cells; host or cells: cultured cells treated intact (A549 per the earlier reading)
T7 sequence (O14976 1-1311): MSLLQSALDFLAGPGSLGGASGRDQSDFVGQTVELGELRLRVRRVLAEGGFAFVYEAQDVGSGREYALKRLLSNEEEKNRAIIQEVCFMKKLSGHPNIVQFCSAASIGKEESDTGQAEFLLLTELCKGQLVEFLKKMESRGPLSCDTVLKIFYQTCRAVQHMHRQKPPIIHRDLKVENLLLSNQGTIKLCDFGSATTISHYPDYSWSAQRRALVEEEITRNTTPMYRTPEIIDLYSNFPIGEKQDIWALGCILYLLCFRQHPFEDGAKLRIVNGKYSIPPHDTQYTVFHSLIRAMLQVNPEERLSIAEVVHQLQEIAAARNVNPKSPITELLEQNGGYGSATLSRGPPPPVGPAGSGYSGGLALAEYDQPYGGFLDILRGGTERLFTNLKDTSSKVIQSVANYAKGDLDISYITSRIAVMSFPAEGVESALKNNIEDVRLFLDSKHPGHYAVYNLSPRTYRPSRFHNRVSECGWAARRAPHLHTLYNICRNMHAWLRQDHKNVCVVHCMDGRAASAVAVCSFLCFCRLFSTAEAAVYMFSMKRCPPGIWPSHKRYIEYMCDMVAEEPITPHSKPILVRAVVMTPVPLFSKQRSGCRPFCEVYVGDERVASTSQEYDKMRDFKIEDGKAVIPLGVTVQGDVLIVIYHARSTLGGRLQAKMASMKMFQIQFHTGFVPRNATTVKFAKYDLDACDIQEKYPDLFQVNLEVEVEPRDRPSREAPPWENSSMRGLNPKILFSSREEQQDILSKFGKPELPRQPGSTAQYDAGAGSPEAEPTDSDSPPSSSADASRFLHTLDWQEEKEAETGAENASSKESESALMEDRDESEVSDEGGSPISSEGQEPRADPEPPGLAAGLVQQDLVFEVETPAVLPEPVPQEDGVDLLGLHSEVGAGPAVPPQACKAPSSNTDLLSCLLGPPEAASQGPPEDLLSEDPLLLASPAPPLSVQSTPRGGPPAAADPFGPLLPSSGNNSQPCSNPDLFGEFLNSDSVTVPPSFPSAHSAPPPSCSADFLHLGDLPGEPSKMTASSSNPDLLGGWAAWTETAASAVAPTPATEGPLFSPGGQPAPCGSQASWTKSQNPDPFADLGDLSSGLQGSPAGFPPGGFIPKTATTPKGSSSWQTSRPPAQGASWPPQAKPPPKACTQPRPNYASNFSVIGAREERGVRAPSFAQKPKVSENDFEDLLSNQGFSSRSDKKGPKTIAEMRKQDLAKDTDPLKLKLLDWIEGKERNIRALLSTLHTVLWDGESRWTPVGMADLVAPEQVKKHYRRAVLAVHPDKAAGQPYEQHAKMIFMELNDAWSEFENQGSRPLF
Method: as §1, §2, §3, §4, §5, §6, §7, §8

T1 sequence (P29317 24-976): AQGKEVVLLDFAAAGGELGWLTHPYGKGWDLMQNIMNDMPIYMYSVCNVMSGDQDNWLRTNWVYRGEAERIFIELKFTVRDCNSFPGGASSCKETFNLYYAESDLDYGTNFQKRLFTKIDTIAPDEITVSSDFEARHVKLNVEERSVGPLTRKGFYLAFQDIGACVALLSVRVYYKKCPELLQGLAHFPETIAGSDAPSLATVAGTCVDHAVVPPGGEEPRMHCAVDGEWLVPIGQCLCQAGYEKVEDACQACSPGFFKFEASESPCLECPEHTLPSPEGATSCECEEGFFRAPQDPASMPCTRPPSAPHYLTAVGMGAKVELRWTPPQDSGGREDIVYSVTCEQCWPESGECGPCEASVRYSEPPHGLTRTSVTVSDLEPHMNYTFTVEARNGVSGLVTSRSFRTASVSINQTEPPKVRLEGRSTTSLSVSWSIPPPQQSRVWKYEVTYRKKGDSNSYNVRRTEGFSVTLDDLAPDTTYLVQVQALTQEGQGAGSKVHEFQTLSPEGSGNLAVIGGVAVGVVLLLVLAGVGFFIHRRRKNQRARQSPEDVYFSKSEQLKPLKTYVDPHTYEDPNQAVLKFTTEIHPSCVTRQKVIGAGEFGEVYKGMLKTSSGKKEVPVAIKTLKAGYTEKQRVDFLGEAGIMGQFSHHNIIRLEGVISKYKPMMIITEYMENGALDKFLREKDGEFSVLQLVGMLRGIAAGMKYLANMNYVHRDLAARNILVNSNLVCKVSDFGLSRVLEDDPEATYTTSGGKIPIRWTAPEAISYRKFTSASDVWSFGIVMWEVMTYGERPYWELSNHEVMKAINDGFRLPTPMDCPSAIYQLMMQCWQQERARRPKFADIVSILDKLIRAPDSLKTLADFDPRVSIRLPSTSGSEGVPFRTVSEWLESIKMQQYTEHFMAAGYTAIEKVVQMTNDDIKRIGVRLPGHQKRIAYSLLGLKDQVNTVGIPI
T5 sequence (P07948 whole entry): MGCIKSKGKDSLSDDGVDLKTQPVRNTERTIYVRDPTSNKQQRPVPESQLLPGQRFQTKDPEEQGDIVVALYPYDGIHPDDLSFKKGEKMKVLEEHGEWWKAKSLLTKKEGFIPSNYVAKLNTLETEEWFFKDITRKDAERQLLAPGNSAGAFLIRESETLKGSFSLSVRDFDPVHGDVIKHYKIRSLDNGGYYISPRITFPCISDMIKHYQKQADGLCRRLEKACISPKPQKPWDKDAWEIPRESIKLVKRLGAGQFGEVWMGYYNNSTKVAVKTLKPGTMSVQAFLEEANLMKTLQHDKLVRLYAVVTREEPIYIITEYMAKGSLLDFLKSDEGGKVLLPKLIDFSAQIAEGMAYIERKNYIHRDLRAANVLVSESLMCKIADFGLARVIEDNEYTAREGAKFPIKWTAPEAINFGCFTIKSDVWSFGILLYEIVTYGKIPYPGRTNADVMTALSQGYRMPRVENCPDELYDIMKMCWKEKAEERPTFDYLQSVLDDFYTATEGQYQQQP
T3 sequence (P23458 whole entry): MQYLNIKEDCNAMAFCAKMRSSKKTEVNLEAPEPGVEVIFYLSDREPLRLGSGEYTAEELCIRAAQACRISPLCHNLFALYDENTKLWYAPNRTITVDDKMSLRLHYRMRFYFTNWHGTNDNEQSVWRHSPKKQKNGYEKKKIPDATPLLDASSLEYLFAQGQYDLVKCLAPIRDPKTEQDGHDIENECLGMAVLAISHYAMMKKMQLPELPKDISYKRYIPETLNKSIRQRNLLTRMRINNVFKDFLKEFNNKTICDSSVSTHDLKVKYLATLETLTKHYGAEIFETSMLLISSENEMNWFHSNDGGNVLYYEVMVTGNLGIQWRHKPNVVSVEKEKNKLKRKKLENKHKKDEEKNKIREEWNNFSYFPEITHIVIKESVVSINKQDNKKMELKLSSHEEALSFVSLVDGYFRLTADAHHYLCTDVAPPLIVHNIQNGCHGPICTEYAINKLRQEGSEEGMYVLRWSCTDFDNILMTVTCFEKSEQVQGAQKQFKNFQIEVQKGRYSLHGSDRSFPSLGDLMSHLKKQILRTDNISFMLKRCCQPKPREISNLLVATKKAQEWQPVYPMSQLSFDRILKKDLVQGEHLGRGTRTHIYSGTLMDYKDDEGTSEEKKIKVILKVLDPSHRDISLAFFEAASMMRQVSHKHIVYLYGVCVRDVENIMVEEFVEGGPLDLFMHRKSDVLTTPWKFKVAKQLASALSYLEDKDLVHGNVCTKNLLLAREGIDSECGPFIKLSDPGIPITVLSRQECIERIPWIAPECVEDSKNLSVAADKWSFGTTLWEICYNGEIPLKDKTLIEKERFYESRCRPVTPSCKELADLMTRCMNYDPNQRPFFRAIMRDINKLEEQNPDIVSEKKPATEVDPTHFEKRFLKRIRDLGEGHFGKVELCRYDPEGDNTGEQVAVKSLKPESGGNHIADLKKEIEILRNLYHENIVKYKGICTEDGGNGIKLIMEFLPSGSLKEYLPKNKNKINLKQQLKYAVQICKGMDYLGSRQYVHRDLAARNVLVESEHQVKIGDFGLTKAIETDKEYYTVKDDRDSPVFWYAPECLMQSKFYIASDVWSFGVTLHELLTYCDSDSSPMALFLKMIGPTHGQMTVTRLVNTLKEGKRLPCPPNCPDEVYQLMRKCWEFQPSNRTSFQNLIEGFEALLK
T4 sequence (O60674 whole entry): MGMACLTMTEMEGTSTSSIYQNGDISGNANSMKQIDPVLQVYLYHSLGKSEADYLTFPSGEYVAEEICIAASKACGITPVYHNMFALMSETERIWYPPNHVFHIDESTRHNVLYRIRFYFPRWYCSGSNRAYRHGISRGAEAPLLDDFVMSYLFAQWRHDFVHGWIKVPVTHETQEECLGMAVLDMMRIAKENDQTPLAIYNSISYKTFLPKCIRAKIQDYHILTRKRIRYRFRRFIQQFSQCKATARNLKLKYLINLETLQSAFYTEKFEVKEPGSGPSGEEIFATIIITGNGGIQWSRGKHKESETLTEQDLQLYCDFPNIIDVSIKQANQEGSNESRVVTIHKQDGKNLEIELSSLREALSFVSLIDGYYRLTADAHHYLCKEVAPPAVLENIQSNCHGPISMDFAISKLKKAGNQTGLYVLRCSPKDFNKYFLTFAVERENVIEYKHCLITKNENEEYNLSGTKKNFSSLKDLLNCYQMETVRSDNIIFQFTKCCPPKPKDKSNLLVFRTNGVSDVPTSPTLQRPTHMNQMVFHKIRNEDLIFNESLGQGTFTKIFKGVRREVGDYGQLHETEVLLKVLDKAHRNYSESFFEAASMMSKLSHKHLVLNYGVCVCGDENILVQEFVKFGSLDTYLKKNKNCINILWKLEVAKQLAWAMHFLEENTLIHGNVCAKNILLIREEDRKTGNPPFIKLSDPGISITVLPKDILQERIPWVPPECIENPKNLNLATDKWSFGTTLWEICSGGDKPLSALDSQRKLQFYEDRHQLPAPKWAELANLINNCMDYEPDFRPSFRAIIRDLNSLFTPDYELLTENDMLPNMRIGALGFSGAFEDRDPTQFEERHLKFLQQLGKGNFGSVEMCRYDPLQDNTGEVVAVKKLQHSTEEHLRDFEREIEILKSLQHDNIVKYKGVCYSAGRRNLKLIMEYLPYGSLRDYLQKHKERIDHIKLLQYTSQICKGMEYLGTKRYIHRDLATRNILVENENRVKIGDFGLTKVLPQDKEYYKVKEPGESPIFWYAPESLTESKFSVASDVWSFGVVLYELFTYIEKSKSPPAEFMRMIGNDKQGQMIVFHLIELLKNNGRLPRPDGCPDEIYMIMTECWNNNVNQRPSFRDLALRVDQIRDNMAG

NVP-BHG712
IC50 (EphA2; pepsin, n = 3, read-out: IC50 EphA2;K646, peptic analysis): 20.5 nM
IC50 (EphA2; trypsin, n = 3, read-out: IC50 EphA2;K646, tryptic analysis): 17 nM
IC50 (EphB4): 20 nM and 20.2 nM
Interaction with ATP-binding pocket, JAK1;K908 signal across the concentration range (JAK1): do not interact
Interaction with ATP-binding pocket, JAK2;K882 signal across the concentration range (JAK2): do not interact
IC50 (LYN): 13400 nM
IC50 (MAP3K20): 2900 nM
IC50 ([1]; apparent IC50, lysine 69 in ATP pocket, n = 3, read-out: IC50 GAK;K69): 9400 nM
IC50 ([1]; apparent IC50, lysine 175 in ATP pocket, n = 3, read-out: IC50 GAK;K175): 13000 nM
